Series [1] can be described thus: Solubility in PBS at 25° C. In kind it is physicochemical. The note with it: aqueous buffer, phosphate buffered saline.
Another series relates to Molt 4 cells. The experiment in a line: Inhibition of the growth of T cells (Molt 4). The note with it: Homo sapiens. It counts as cell-based. The procedure:
(§1) The compounds of the invention were tested for inhibition of the growth of T cells (Molt 4) compared to B cells (IM9) by the method of Averett, D., Journal of Virological Methods, 23, (1989), 263-276.

For a further series, the system named is IM9 cells. The series is described as follows: Inhibition of the growth of B cells (IM9). In kind it is cell-based. The note with it: Homo sapiens; for IC50: IM-9; for activity at 10 µM: IM-9, printed in parentheses beside IC50 >10 μM, read-out: % of Control growth. The procedure:
as §1

Series [2] in a line: Bioavailability of araG after oral administration to Cynomolgus monkeys (plasma, urine). It counts as in vivo. The note with it: fasted Cynomolgus monkeys, individual animals; for Cmax: read-out: Plasma araG Peak Level. The procedure:
AraG and compounds of the invention were administered orally to Cynomolgus monkeys which had been fasted for eight hours. Each compound was given to two monkeys. The dosage was 94 μmol/kg which is equivalent to 27 mg/kg araG. Blood samples were taken over the following 24 hours, and urine was collected over the same 24 hours. Concentrations of araG in plasma extracts and urine were determined by reverse phase HPLC.

Series [3] can be described thus: Water solubility (statement). In kind it is physicochemical. The note with it: in words.
A short description of series [4]: Bioavailability after oral dosing in primates (statement). It counts as in vivo. The note with it: in words.
Series [5] has as its system T cells compared to B cells; T-leukemic cells. The note with it: cited from earlier work.
The test system of series [6] is human T-cell line (Molt 4) in contrast to a human B-cell line (IM9). The series is described as follows: Selective inhibition of T cell growth, Molt 4 compared to IM9. The note with it: Molt 4 vs IM9. In kind it is cell-based. As for the experimental part: as §1

Values after ≈ are worked out from the molar mass of the structure shown. “Also recorded” adds a separate entry of the source. Read-outs that look alike come from different tables or passages of the source.

As usually defined, the solubility is the dissolved amount per volume that the medium holds. Read a low solubility as a poorly soluble substance. What is called IC50 is the concentration at which inhibition is half-maximal. Low values mean greater potency in that assay, high ones weaker potency in that assay.

For `COc1nc(N)nc2c1ncn2[C@@H]1O[C@H](COC(C)=O)[C@@H](O)[C@@H]1O` [Example 1b, 9-(5-O-Acetyl-β-D-arabinofuranosyl)-2-amino-6-methoxy-9H-purine], the solubility in series [1] came to 92 mM (≈ 31.2 mg/mL).
Same read-out and setting: the result for `COc1nc(N)nc2c1ncn2[C@@H]1O[C@H](COC(C)=O)[C@@H](OC(C)=O)[C@@H]1O` [Example 2j, 9-(3,5-di-O-Acetyl-β-D-arabinofuranosyl)-2-amino-6-methoxy-9H-purine] reads 38 mM (≈ 14.5 mg/mL).
In the case of `Nc1nc2c(ncn2[C@@H]2O[C@H](CO)[C@@H](O)[C@@H]2O)c(=O)[nH]1` [araG, arabinofuranosyl guanine], the IC50 in the series with Molt 4 cells was 1.4 ± 0.08 µM; in the series with IM9 cells, above 10 µM. In addition, the activity at 10 µM in the series with IM9 cells was determined as 84%. Besides, in series [1], the solubility was 4 mM (≈ 1.13 mg/mL). In series [2] (94 μmol/kg, plasma, 420 min), the “Plasma araG AUC 0.7 hrs” value was determined as 21.1 µM·h. In addition, the Cmax in series [2] (94 μmol/kg, plasma) came to 4.6 µM; in series [2] (cynomolgus monkey, plasma, po, 94 umol/kg, plasma) it was 6 µM. In addition, the “Urine % Recovered as araG” value in series [2] (94 μmol/kg, urine over 24 hours, 1440 min) was 4.2%. In series [2] (cynomolgus monkey, plasma, po, 94 umol/kg, plasma, read-out: Plasma araG AUC 0.7 hrs), the AUC(0-t) at 7 h came out at 20.8 µM·h. Moreover, the dose excreted at 24 h in series [2] (cynomolgus monkey, urine, po, 94 umol/kg, urine over 24 hours, read-out: Urine % Recovered as araG) was 3.9%. In series [3], the water solubility result is given as “limited water solubility”. Also, the oral bioavailability entry in series [4] was “low bioavailability after oral dosing in primates”. Further, the “selective inhibition of growth of T cells / selective cytotoxic activity for T-leukemic cells” value in series [5] is listed as “selectively inhibits the growth of T cells compared to B cells; also recorded: selective cytotoxic activity for T-leukemic cells”.
In the case of `COc1nc(N)nc2c1ncn2[C@@H]1O[C@H](CO)[C@@H](O)[C@@H]1O` [compound 1, 2-Amino-6-methoxy-9-(β-D-arabinofuranosyl)-9H-purine], the IC50 in the series on Molt 4 cells was 0.8 ± 0.1 µM. Further, in the series on IM9 cells, the IC50 is above 10 µM and the activity at 10 µM was 85%. Moreover, in series [6], the “selective inhibition of growth of T-cell line vs B-cell line” value is given as “selectively inhibits the growth of a human T-cell line (Molt 4) in contrast to a human B-cell line (IM9)”.
